Values joined by “and” are separate entries in the source; they are usually repeats but may differ in a detail not shown here. Equal entries are not always repeated.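 Five compound concentrations were applied to cells in 96-well plates for 48 hours; endpoints were derived by simple linear interpolation of the resulting dose-response curve. At the GI50, growth is halved.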 Active and inactive are the calls of the source. Rule as the data show it: active = GI50 up to about 1.1 µM and inactive = higher.
Key:
Experiment in all cases: DTP human tumour cell line panel, 48 h
OVCAR-3 = tested on: OVCAR-3
SK-OV-3 = tested on: SK-OV-3
HCC 2998 = tested on: HCC 2998
A498 = tested on: A498
KM12 = tested on: KM12
MCF7 = tested on: MCF7
TK-10 = tested on: TK-10
786-0 = tested on: 786-0
SF-268 = tested on: SF-268
RPMI-8226 = tested on: RPMI-8226
HOP-62 = tested on: HOP-62
DU-145 = tested on: DU-145
HCT-116 = tested on: HCT-116
U-251 = tested on: U-251
SK-MEL-5 = tested on: SK-MEL-5
HCT-15 = tested on: HCT-15
SK-MEL-2 = tested on: SK-MEL-2
SF-295 = tested on: SF-295
NCI-H460 = tested on: NCI-H460
A549 = tested on: A549
OVCAR-4 = tested on: OVCAR-4
NCI/ADR-RES = tested on: NCI/ADR-RES
RXF 393 = tested on: RXF 393
MDA-N = tested on: MDA-N
COLO 205 = tested on: COLO 205
HOP-92 = tested on: HOP-92
MOLT-4 = tested on: MOLT-4
SN12C = tested on: SN12C
OVCAR-5 = tested on: OVCAR-5
T47D = tested on: T47D
UO-31 = tested on: UO-31
ACHN = tested on: ACHN
EKVX = tested on: EKVX
SNB-19 = tested on: SNB-19
MDA-MB-231 = tested on: MDA-MB-231
SK-MEL-28 = tested on: SK-MEL-28
K562 = tested on: K562
UACC-257 = tested on: UACC-257
Malme-3M = tested on: Malme-3M
M14 = tested on: M14
CAKI-1 = tested on: CAKI-1
BT-549 = tested on: BT-549
NCI-H522 = tested on: NCI-H522
SR = tested on: SR
HT-29 = tested on: HT-29
SNB-75 = tested on: SNB-75
SW-620 = tested on: SW-620
PC-3 = tested on: PC-3
UACC-62 = tested on: UACC-62
NCI-H23 = tested on: NCI-H23
LOX IMVI = tested on: LOX IMVI
CCRF-CEM = tested on: CCRF-CEM
IGROV-1 = tested on: IGROV-1
MDA-MB-435 = tested on: MDA-MB-435
NCI-H226 = tested on: NCI-H226
SF-539 = tested on: SF-539
OVCAR-8 = tested on: OVCAR-8
Hs-578T = tested on: Hs-578T
HL-60 = tested on: HL-60

Question: With `Cc1[nH]c2c(c1C)S(=O)(=O)c1cc3ccccc3nc1N2` as the molecule, how does the GI50 (OVCAR-3) read?
Answer: Its GI50 is 19.9 µM (inactive).

Question: What about the GI50 (SK-OV-3) of the same molecule?
Answer: Its GI50 is 30.8 µM (inactive).

Question: What about the GI50 (HCC 2998) of the same molecule?
Answer: The GI50 was 65.2 µM (inactive).

Question: What about the GI50 (A498) of the same molecule?
Answer: Its GI50 is 73.8 µM (inactive).

Question: And the GI50 (KM12)?
Answer: The GI50 was 27.9 µM (inactive).

Question: And the GI50 (MCF7)?
Answer: Its GI50 is 5.15 µM (inactive).

Question: And the GI50 (TK-10)?
Answer: The GI50 was 37.7 µM (inactive).

Question: And the GI50 (786-0)?
Answer: The GI50 was 16.6 µM (inactive).

Question: What about the GI50 (SF-268) of the same molecule?
Answer: The GI50 was 28.1 µM (inactive).

Question: What about the GI50 (RPMI-8226) of the same molecule?
Answer: The GI50 was 14.7 µM (inactive).

Question: What about the GI50 (HOP-62) of the same molecule?
Answer: The GI50 was 18.2 µM (inactive).

Question: And the GI50 (DU-145)?
Answer: Its GI50 is 24.9 µM (inactive).

Question: And the GI50 (HCT-116)?
Answer: The GI50 was 15.8 µM (inactive).

Question: And the GI50 (U-251)?
Answer: The GI50 was 11.2 µM (inactive).

Question: What about the GI50 (SK-MEL-5) of the same molecule?
Answer: Its GI50 is 14.6 µM (inactive).

Question: And the GI50 (HCT-15)?
Answer: The GI50 was 22.1 µM.

Question: What about the GI50 (SK-MEL-2) of the same molecule?
Answer: Its GI50 is 55.3 µM (inactive).

Question: And the GI50 (SF-295)?
Answer: The GI50 was 27.3 µM (inactive).

Question: And the GI50 (NCI-H460)?
Answer: Its GI50 is 18.7 µM (inactive).

Question: What about the GI50 (A549) of the same molecule?
Answer: The GI50 was 36.3 µM (inactive).

Question: What about the GI50 (OVCAR-4) of the same molecule?
Answer: The GI50 was 14.3 µM (inactive).

Question: What about the GI50 (NCI/ADR-RES) of the same molecule?
Answer: Its GI50 is 32.3 µM (inactive).

Question: What about the GI50 (RXF 393) of the same molecule?
Answer: The GI50 was 19.3 µM (inactive).

Question: And the GI50 (MDA-N)?
Answer: The GI50 was 15.7 µM (inactive).

Question: And the GI50 (COLO 205)?
Answer: Its GI50 is 20 µM (inactive).

Question: And the GI50 (HOP-92)?
Answer: The GI50 was 25.4 µM (inactive).

Question: And the GI50 (MOLT-4)?
Answer: Its GI50 is > 100 µM (inactive).

Question: And the GI50 (SN12C)?
Answer: The GI50 was 16.4 µM (inactive).

Question: And the GI50 (OVCAR-5)?
Answer: Its GI50 is 19.7 µM (inactive).

Question: What about the GI50 (T47D) of the same molecule?
Answer: Its GI50 is > 100 µM (inactive).

Question: What about the GI50 (UO-31) of the same molecule?
Answer: Its GI50 is 21.6 µM (inactive).

Question: What about the GI50 (ACHN) of the same molecule?
Answer: The GI50 was 29.5 µM (inactive).

Question: What about the GI50 (EKVX) of the same molecule?
Answer: Its GI50 is 36.7 µM (inactive).

Question: And the GI50 (SNB-19)?
Answer: The GI50 was 26.2 µM (inactive).

Question: And the GI50 (MDA-MB-231)?
Answer: The GI50 was 27.8 µM (inactive).

Question: And the GI50 (SK-MEL-28)?
Answer: Its GI50 is 25.5 µM (inactive).

Question: And the GI50 (K562)?
Answer: Its GI50 is 10.9 µM (inactive).

Question: What about the GI50 (UACC-257) of the same molecule?
Answer: The GI50 was 35.9 µM (inactive).

Question: And the GI50 (Malme-3M)?
Answer: Its GI50 is 16.6 µM (inactive).

Question: What about the GI50 (M14) of the same molecule?
Answer: Its GI50 is 20 µM (inactive).

Question: And the GI50 (CAKI-1)?
Answer: The GI50 was 30.5 µM (inactive).

Question: What about the GI50 (BT-549) of the same molecule?
Answer: The GI50 was 69.8 µM (inactive).

Question: What about the GI50 (NCI-H522) of the same molecule?
Answer: The GI50 was 21.4 µM (inactive).

Question: What about the GI50 (SR) of the same molecule?
Answer: Its GI50 is 17.1 µM (inactive).

Question: What about the GI50 (HT-29) of the same molecule?
Answer: Its GI50 is 15 µM (inactive).

Question: What about the GI50 (SNB-75) of the same molecule?
Answer: The GI50 was 17.3 µM (inactive).

Question: And the GI50 (SW-620)?
Answer: Its GI50 is 40.4 µM (inactive).

Question: And the GI50 (PC-3)?
Answer: Its GI50 is 34.3 µM (inactive).

Question: What about the GI50 (UACC-62) of the same molecule?
Answer: The GI50 was 42.7 µM (inactive).

Question: And the GI50 (NCI-H23)?
Answer: The GI50 was 23.9 µM (inactive).

Question: And the GI50 (LOX IMVI)?
Answer: Its GI50 is 10.6 µM (inactive).

Question: And the GI50 (CCRF-CEM)?
Answer: Its GI50 is 5.09 µM (inactive).

Question: What about the GI50 (IGROV-1) of the same molecule?
Answer: Its GI50 is 10.1 µM (inactive).

Question: And the GI50 (MDA-MB-435)?
Answer: The GI50 was 26.4 µM (inactive).

Question: And the GI50 (NCI-H226)?
Answer: The GI50 was 22 µM (inactive).

Question: And the GI50 (SF-539)?
Answer: Its GI50 is 6.81 µM (inactive).

Question: What about the GI50 (OVCAR-8) of the same molecule?
Answer: Its GI50 is 12.3 µM (inactive).

Question: How did the GI50 (SK-OV-3) turn out when `Cc1ccc(OCC2OC(n3cnc4c(Cl)ncnc43)CC2Oc2ccc(C)cc2)cc1` (stereo not given) was run?
Answer: The GI50 was 29.8 µM (inactive) and 20 µM (inactive).

Question: What about the GI50 (TK-10) of the same molecule?
Answer: Its GI50 is 30.5 µM (inactive) and 45 µM (inactive).

Question: What about the GI50 (786-0) of the same molecule?
Answer: Its GI50 is 31.8 µM (inactive) and 17.4 µM (inactive).

Question: What about the GI50 (SF-268) of the same molecule?
Answer: Its GI50 is 7.91 µM (inactive) and 4.74 µM (inactive).

Question: What about the GI50 (RPMI-8226) of the same molecule?
Answer: The GI50 was 2.69 µM (inactive) and 5.31 µM (inactive).

Question: What about the GI50 (U-251) of the same molecule?
Answer: The GI50 was 1.97 µM (inactive) and 2.55 µM (inactive).

Question: And the GI50 (SK-MEL-5)?
Answer: Its GI50 is 15.4 µM (inactive) and 18.7 µM (inactive).

Question: What about the GI50 (SK-MEL-2) of the same molecule?
Answer: Its GI50 is 12.4 µM (inactive) and 17.3 µM (inactive).

Question: What about the GI50 (SF-295) of the same molecule?
Answer: The GI50 was 20 µM (inactive) and 14.9 µM (inactive).

Question: And the GI50 (NCI/ADR-RES)?
Answer: The GI50 was 12.4 µM (inactive) and 19.2 µM (inactive).

Question: What about the GI50 (Hs-578T) of the same molecule?
Answer: Its GI50 is 6.84 µM (inactive) and 4.7 µM (inactive).

Question: And the GI50 (HL-60)?
Answer: The GI50 was 2.29 µM (inactive) and 1.72 µM (inactive).

Question: And the GI50 (MOLT-4)?
Answer: Its GI50 is 2.48 µM (inactive) and 2.49 µM (inactive).

Question: And the GI50 (OVCAR-5)?
Answer: The GI50 was 26.4 µM (inactive) and 24.9 µM (inactive).

Question: And the GI50 (EKVX)?
Answer: The GI50 was 3.06 µM (inactive) and 2.84 µM (inactive).

Question: What about the GI50 (MDA-MB-231) of the same molecule?
Answer: The GI50 was 9.51 µM (inactive) and 5.35 µM (inactive).

Question: What about the GI50 (SK-MEL-28) of the same molecule?
Answer: Its GI50 is 1.71 µM (inactive) and 2.13 µM (inactive).

Question: And the GI50 (K562)?
Answer: The GI50 was 4.92 µM (inactive) and 2.99 µM (inactive).

Question: What about the GI50 (CAKI-1) of the same molecule?
Answer: Its GI50 is 2.21 µM (inactive) and 1.94 µM (inactive).

Question: What about the GI50 (BT-549) of the same molecule?
Answer: The GI50 was 20.2 µM (inactive) and 18.5 µM (inactive).

Question: What about the GI50 (NCI-H522) of the same molecule?
Answer: The GI50 was 2.27 µM (inactive) and 1.71 µM (inactive).

Question: What about the GI50 (SR) of the same molecule?
Answer: The GI50 was 2.66 µM (inactive) and 3.29 µM (inactive).

Question: What about the GI50 (SNB-75) of the same molecule?
Answer: The GI50 was 26.1 µM (inactive) and 15.8 µM (inactive).

Question: And the GI50 (SW-620)?
Answer: Its GI50 is 2.07 µM (inactive) and 3.43 µM (inactive).

Question: And the GI50 (CCRF-CEM)?
Answer: The GI50 was 4.78 µM (inactive) and 5.09 µM (inactive).

Question: What about the GI50 (NCI-H226) of the same molecule?
Answer: The GI50 was 11.9 µM (inactive) and 20.8 µM (inactive).

Question: What about the GI50 (SF-539) of the same molecule?
Answer: The GI50 was 22.9 µM (inactive) and 15.8 µM (inactive).

Question: And the GI50 (OVCAR-8)?
Answer: Its GI50 is 8.93 µM (inactive) and 8.3 µM (inactive).

Source: ChEMBL document CHEMBL1201862, “PubChem BioAssay data set” (2004)
